pIC50: −log10 of the molar value.
Legend:
[1] = test system: K562; experiment: Antiproliferative activity against human K562 cells assessed as reduction in cell viability incubated for 72 hrs by MTT assay; type: functional, cell-based; settings: K562, 72 h
[2] = test system: MDA-MB-231; experiment: Antiproliferative activity against human MDA-MB-231 cells assessed as reduction in cell viability incubated for 72 hrs by MTT assay; type: functional, cell-based; settings: MDA-MB-231, 72 h
[3] = test system: SMMC-7721; experiment: Antiproliferative activity against human […] cells assessed as reduction in cell viability incubated for 72 hrs by MTT assay; type: functional, cell-based; settings: SMMC-7721, 72 h
[4] = test system: MCF7; experiment: Antiproliferative activity against human MCF7 cells assessed as reduction in cell viability incubated for 72 hrs by MTT assay; type: functional, cell-based; settings: MCF7, 72 h
[5] = test system: HeLa; experiment: Antiproliferative activity against human HeLa cells assessed as reduction in cell viability incubated for 72 hrs by MTT assay; type: functional, cell-based
[6] = Selectivity index, ratio of IC50 for human L02 cells to IC50 for human SMMC-7721 cells; type: toxicity; settings: L02 cells and SMMC-7721 cells, read-out: Ratio IC50
[7] = test system: MGC-803; experiment: Antiproliferative activity against human MGC-803 cells assessed as reduction in cell viability incubated for 72 hrs by MTT assay; type: functional, cell-based; settings: MGC-803, 72 h
[8] = Antiproliferative activity against human U-87 MG cells assessed as reduction in cell viability incubated for 72 hrs by MTT assay; type: functional, cell-based, U-87MG ATCC
[9] = test system: H22; experiment: Antiproliferative activity against mouse H22 cells assessed as reduction in cell viability incubated for 72 hrs by MTT assay; type: functional, cell-based; settings: H22, 72 h
[10] = Cytotoxicity against human L02 cells assessed as reduction in cell viability incubated for 72 hrs by MTT assay; type: toxicity, cell-based
[11] = test system: SW480; experiment: Antiproliferative activity against human SW480 cells assessed as reduction in cell viability incubated for 72 hrs by MTT assay; type: functional, cell-based; settings: SW480, 72 h

| pIC50 [1] | Compound | other results |
| --- | --- | --- |
| 6.05 | C=C1C(=O)[C@]23[C@H](OC(=O)C=C(C)C)[C@H]1CC[C@H]2[C@]12CCCC(C)(C)[C@H]1[C@H](O)[C@@]3(O)OC2 |  |
| 5.84 | C=C1C(=O)[C@]23[C@H](OC(=O)/C=C/c4ccco4)[C@H]1CC[C@H]2[C@]12CCCC(C)(C)[C@H]1C[C@@]3(O)OC2 |  |
| 5.48 | C=C1C(=O)[C@]23[C@H](OC(=O)c4ccccc4C)[C@H]1CC[C@H]2[C@]12CCCC(C)(C)[C@H]1[C@H](O)[C@@]3(O)OC2 |  |
| 5.78 | C=C1C(=O)[C@@]23C(=O)[C@@H](OC(C)=O)[C@@H]4C(C)(C)CC=C[C@@]4(COC(C)=O)[C@@H]2CC[C@@H]1[C@H]3OC(C)=O | pIC50 [2]: 5.50; pIC50 [3]: 5.53; pIC50 [4]: 5.45 |
| 5.75 | C=C1C(=O)[C@]23[C@H](OC(=O)/C=C/c4ccccc4)[C@H]1CC[C@H]2[C@]12CCCC(C)(C)[C@H]1[C@H](O)[C@@]3(O)OC2 |  |
| 6.25 | C=C1C(=O)[C@]23[C@H](OC(=O)/C=C/c4cccnc4)[C@H]1CC[C@H]2[C@]12CCCC(C)(C)[C@H]1C[C@@]3(O)OC2 |  |
| 5.91 | C=C1C(=O)[C@]23[C@H](O)[C@H]1CC[C@H]2[C@]12CCCC(C)(C)[C@H]1[C@H](O)[C@@]3(O)OC2 | pIC50 [2]: 5.69; pIC50 [3]: 5.50; pIC50 [4]: 5.55 |
| 5.27 | C=C1C(=O)[C@]23[C@H](OC(C)=O)[C@H]1CC[C@H]2[C@]12CCCC(C)(C)[C@H]1[C@H](O)[C@@]3(O)OC2 |  |
| 5.88 | C=C1C(=O)[C@]23[C@H](OC(=O)/C=C/c4ccc[nH]4)[C@H]1CC[C@H]2[C@]12CCCC(C)(C)[C@H]1[C@H](O)[C@@]3(O)OC2 |  |
| 5.92 | C=C1C(=O)[C@]23[C@H](OC(C)=O)[C@H]1CC[C@H]2[C@]12CCCC(C)(C)[C@H]1C[C@@]3(O)OC2 |  |
| 5.86 | C=C1C(=O)[C@]23[C@H](OC(=O)/C=C/c4cccc(Br)n4)[C@H]1CC[C@H]2[C@]12C=CCC(C)(C)[C@H]1[C@H](O)[C@@]3(O)OC2 |  |
| 5.52 | C=C1C(=O)[C@]23[C@H](OC(=O)c4ccc(C)cc4)[C@H]1CC[C@@]2(C)[C@]12CCCC(C)(C)[C@H]1[C@H](O)[C@@]3(O)OC2 |  |
| 5.43 | C=C1C(=O)[C@]23[C@H](OC(=O)/C=C/c4ccc5ccccc5c4)[C@H]1CC[C@H]2[C@]12CCCC(C)(C)[C@H]1[C@H](O)[C@@]3(O)OC2 |  |
| 5.39 | C=C1C(=O)[C@]23[C@H](OC(=O)C4CCCCC4)[C@H]1CC[C@H]2[C@]12CCCC(C)(C)[C@H]1[C@H](O)[C@@]3(O)OC2 |  |
| 6.15 | C=C1C(=O)[C@]23[C@H](OC(=O)/C=C/c4ccccc4)[C@H]1CC[C@H]2[C@]12C=CCC(C)(C)[C@H]1[C@H](O)[C@@]3(O)OC2 |  |
| 6.27 | C=C1C(=O)[C@]23[C@H](OC(=O)/C=C/c4cccnc4)[C@H]1CC[C@H]2[C@]12C=CCC(C)(C)[C@H]1[C@H](O)[C@@]3(O)OC2 |  |
| 5.33 | C=C1C(=O)[C@@]23C(CC[C@@H]1[C@H]2OC(=O)c1ccc(F)cc1)[C@]12CCCC(C)(C)C1[C@H](O)[C@@]3(O)OC2 (stereo partly drawn) |  |
| 5.99 | C=C1C(=O)[C@@]23C(=O)[C@@H](OC(C)=O)[C@@H]4C(C)(C)CCC[C@@]4(COC(C)=O)[C@@H]2CC[C@@H]1[C@H]3OC(C)=O | pIC50 [2]: 5.80; pIC50 [3]: 5.64; pIC50 [4]: 5.69 |
| 5.82 | C=C1C(=O)[C@]23[C@H](OC(=O)/C=C/c4ccc[nH]4)[C@H]1CC[C@H]2[C@]12C=CCC(C)(C)[C@H]1[C@H](O)[C@@]3(O)OC2 |  |

The remaining lines, values behind:

| Compound | pIC50 [1] | other results |
| --- | --- | --- |
| C=C1C(=O)[C@]23[C@H](OC(=O)c4ccc(Br)cc4)[C@H]1CC[C@H]2[C@]12CCCC(C)(C)[C@H]1[C@H](O)[C@@]3(O)OC2 | 5.36 |  |
| C=C1C(=O)[C@]23[C@H](OC(=O)/C=C/c4ccnc(F)c4)[C@H]1CC[C@H]2[C@]12CCCC(C)(C)[C@H]1C[C@@]3(O)OC2 | 6.05 |  |
| C=C1C(=O)[C@]23[C@H](O)[C@H]1CC[C@H]2[C@]12CCCC(C)(C)[C@H]1C[C@@]3(O)OC2 | 5.70 | pIC50 [2]: 5.60; pIC50 [3]: 5.53; pIC50 [4]: 5.53 |
| C=C1C(=O)[C@]23[C@H](OC(=O)c4cccc(C)c4)[C@H]1CC[C@H]2[C@]12CCCC(C)(C)[C@H]1[C@H](O)[C@@]3(O)OC2 | 5.55 |  |
| C=C1C(=O)[C@]23[C@H](OC(=O)/C=C/c4ccsc4)[C@H]1CC[C@H]2[C@]12C=CCC(C)(C)[C@H]1[C@H](O)[C@@]3(O)OC2 | 5.87 |  |
| C=C1C(=O)[C@]23[C@H](OC(=O)/C=C/C)[C@H]1CC[C@H]2[C@]12CCCC(C)(C)[C@H]1[C@H](O)[C@@]3(O)OC2 | 6.41 |  |
| C=C1C(=O)[C@]23[C@H](OC(=O)/C=C/c4ccccc4)[C@H]1CC[C@H]2[C@]12CCCC(C)(C)[C@H]1C[C@@]3(O)OC2 | 5.56 |  |
| C=C1C(=O)[C@]23[C@H](OC(=O)/C=C(\C)c4ccccc4)[C@H]1CC[C@H]2[C@]12CCCC(C)(C)[C@H]1[C@H](O)[C@@]3(O)OC2 | 5.27 |  |
| C=C1C(=O)[C@]23[C@H](OC(=O)CCCc4ccccc4)[C@H]1CC[C@H]2[C@]12C=CCC(C)(C)[C@H]1[C@H](O)[C@@]3(O)OC2 | 5.44 |  |
| C=C1C(=O)[C@]23[C@H](OC(=O)/C=C/c4ccccn4)[C@H]1CC[C@H]2[C@]12C=CCC(C)(C)[C@H]1[C@H](O)[C@@]3(O)OC2 | 5.80 |  |
| C=C1C(=O)[C@]23[C@H](OC(=O)/C=C/c4ccc(OC)nc4)[C@H]1CC[C@H]2[C@]12C=CCC(C)(C)[C@H]1[C@H](O)[C@@]3(O)OC2 | 5.82 |  |
| C=C1C(=O)[C@]23[C@H](O)[C@H]1CC[C@H]2[C@]12C=CCC(C)(C)[C@H]1[C@H](O)[C@@]3(O)OC2 | 5.69 | pIC50 [2]: 5.73; pIC50 [3]: 5.42; pIC50 [4]: 5.46 |
| C=C1C(=O)[C@]23[C@H](OC(=O)/C=C/c4ccsc4)[C@H]1CC[C@H]2[C@]12CCCC(C)(C)[C@H]1C[C@@]3(O)OC2 | 6.10 |  |
| C=C1C(=O)[C@]23[C@H](OC(=O)/C=C/c4cccc5c4OCO5)[C@H]1CC[C@H]2[C@]12C=CCC(C)(C)[C@H]1[C@H](O)[C@@]3(O)OC2 | 5.55 |  |
| C=C1C(=O)[C@]23[C@H](OC(=O)/C=C/c4cncnc4)[C@H]1CC[C@H]2[C@]12C=CCC(C)(C)[C@H]1[C@H](O)[C@@]3(O)OC2 | 6.34 |  |
| C=C1C(=O)[C@]23[C@H](OC(=O)/C=C/c4cccnc4Br)[C@H]1CC[C@H]2[C@]12C=CCC(C)(C)[C@H]1[C@H](O)[C@@]3(O)OC2 | 5.51 |  |
| C=C1C(=O)[C@]23[C@H](OC(=O)/C=C/c4ccc5ccccc5c4)[C@H]1CC[C@H]2[C@]12C=CCC(C)(C)[C@H]1[C@H](O)[C@@]3(O)OC2 | 5.54 |  |
| C=C1C(=O)[C@]23[C@H](OC(=O)/C=C/c4ccc5ccccc5n4)[C@H]1CC[C@H]2[C@]12C=CCC(C)(C)[C@H]1[C@H](O)[C@@]3(O)OC2 | 5.54 |  |
| C=C1C(=O)[C@]23[C@H](O)[C@H]1CC[C@H]2[C@@]12CO[C@]3(O)[C@@H](O)[C@@H]1C(C)(C)CC[C@@H]2O [ORIDONIN] |  | pIC50 [5]: 4.76; selectivity ratio [6]: 2.73; pIC50 [7]: 4.82; pIC50 [2]: 4.93; pIC50 [8]: 4.85; pIC50 [9]: 5.31; pIC50 [3]: 4.90; IC50 at 72 h [10]: 34300 nM; pIC50 [4]: 4.95; pIC50 [11]: 4.93 |
| C=C1C(=O)[C@]23[C@H](OC(=O)c4ccc(C)cc4)[C@H]1CC[C@H]2[C@]12CCCC(C)(C)[C@H]1C[C@@]3(O)OC2 | 5.26 |  |
| C=C1C(=O)[C@]23[C@H](OC(=O)/C=C/c4cccc5[nH]ccc45)[C@H]1CC[C@H]2[C@]12C=CCC(C)(C)[C@H]1[C@H](O)[C@@]3(O)OC2 | 5.59 |  |
| C=C1C(=O)[C@]23[C@H](OC(=O)c4ccccc4)[C@H]1CC[C@H]2[C@]12CCCC(C)(C)[C@H]1[C@H](O)[C@@]3(O)OC2 | 5.46 |  |
| C=C1C(=O)[C@]23[C@H](OC(=O)/C=C/c4ccc(F)nc4)[C@H]1CC[C@H]2[C@]12C=CCC(C)(C)[C@H]1[C@H](O)[C@@]3(O)OC2 | 6.08 |  |
| C=C1C(=O)[C@]23[C@H](OC(=O)CCc4ccccc4)[C@H]1CC[C@H]2[C@]12C=CCC(C)(C)[C@H]1[C@H](O)[C@@]3(O)OC2 | 5.56 |  |
| C=C1C(=O)[C@]23[C@H](OC(=O)/C=C/c4ccco4)[C@H]1CC[C@H]2[C@]12C=CCC(C)(C)[C@H]1[C@H](O)[C@@]3(O)OC2 | 5.82 |  |

From ChEMBL document CHEMBL5154722, “Identification of new potent anticancer derivatives through simplifying the core structure and modification on their 14- hydroxyl group from oridonin” (Eur J Med Chem, 2022)
